Assay results reported in article PMC340942, “Engineered Biosynthesis of Regioselectively Modified Aromatic Polyketides Using Bimodular Polyketide Synthases” (PLoS Biology, 2004).
Converted amounts (≈) assume the structure as drawn.

Tests used:
[1] = Stability of purified compounds at room temperature; type: physicochemical
[2] = system: human mammary adenocarcinoma MCF-7 cells; assay: Cytotoxicity against MCF-7 cells (colorimetric MTT assay); type: cell-based; settings: MCF7, 120 h, IC50 recorded after 5 d of drug addition, read-out: IC50, cytotoxic activity against MCF-7 cells
Procedure: As described above, the biosynthetic engineering methods reported here have yielded practical routes for the production of several new as well as known anthraquinone compounds. Given the track record of this family of natural products as pharmacologically active molecules, compounds 3, 4, 9, and DMAC were assayed for cytotoxic activities against human mammary adenocarcinoma MCF-7 cells. Apoptosis was observed after 24 h of drug treatment, and IC50 values were recorded after 5 d of drug addition. […] Thus inserting the hydroxyl group at C-9 results in a 10-fold increase in cytotoxic activity.
The studies were performed as described by Hori et al (1993). The cells were maintained at 37°C and growth was measured with the colorimetric MTT assay after each day. The IC50 values were measured after 5 d.

[3] = target: T1, glucose-6-phosphate translocase (Rattus norvegicus, UniProt F7EWB7); assay: G6Pase activity assay in intact male rat liver microsomes (colorimetric inorganic phosphate); type: biochemical; settings: for Inhibition of G6Pase activity of the microsome (Figure 7B): 1 mM glucose-6-phosphate; for Inhibition of G6Pase activity: 10–50 μM range
T1 construct: using intact male rat liver microsomes; tissue BD Gentest (Becton Dickinson); host or cells: male Sprague Dawley rat liver microsomes
T1 sequence (F7EWB7 1-429): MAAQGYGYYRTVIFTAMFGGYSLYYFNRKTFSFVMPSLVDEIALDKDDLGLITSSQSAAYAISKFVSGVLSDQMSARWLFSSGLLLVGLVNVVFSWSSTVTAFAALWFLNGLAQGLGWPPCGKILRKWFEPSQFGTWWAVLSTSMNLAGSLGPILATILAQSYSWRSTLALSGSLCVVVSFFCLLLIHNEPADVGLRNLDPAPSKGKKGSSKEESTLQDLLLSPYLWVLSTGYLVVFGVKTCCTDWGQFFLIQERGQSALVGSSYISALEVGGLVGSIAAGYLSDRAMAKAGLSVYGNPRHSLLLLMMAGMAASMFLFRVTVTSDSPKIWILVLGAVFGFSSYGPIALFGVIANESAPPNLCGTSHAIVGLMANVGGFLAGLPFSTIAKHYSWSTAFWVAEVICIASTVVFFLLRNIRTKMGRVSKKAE
Procedure: Recently, the natural product mumbaistatin (Figure 7A) was identified as an extremely potent inhibitor (IC50 = 5 nM) of the glucose-6-phosphate translocase enzyme complex, an attractive target for the treatment of Type II diabetes ([Vertesy et al. 2001]). The core of mumbaistatin consists of an anthraquinone moiety that is related to several engineered compounds discussed in this report. For example, the carboxylic acid at position C-1 and the reduced C-9 are identical to those present in compounds DMAC, 8, and 9. We tested the inhibitory activities of some of these polyketides against glucose-6-phosphate translocase using intact male rat liver microsomes.
The integrity of the microsomes was first verified by comparing the glucose-6-phosphatase (G6Pase) activity in the presence of either glucose-6-phosphate or mannose-6-phosphate.
Male rat liver microsome (Sprague Dawley) was purchased from BD Gentest^TM (Becton Dickinson, Franklin Lakes, New Jersey, United States). Aliquots (100 μl, 2 mg/ml) in 0.25 M sucrose were stored at –80°C. Compound stock solutions were prepared in 95% ethanol and diluted with DMSO. Glucose-6-phosphate and mannose-6-phosphate were purchased from Sigma (St. Louis, Missouri, United States).
The integrity of microsomes and G6Pase activity was measured based on the colorimetric reaction of inorganic phosphate as previously reported ([Arion 1989]). The enzyme reaction was initiated by adding 3 μl of microsome to the reaction mixture, which contained 51 μl of assay buffer (50 mM HEPES, 100 mM KCl, 2.5 mM EDTA, 2.5 mM MgCl2, and 1 mM DTT at pH 7.2), 3 μl of glucose-6-phosphate (final concentration, 1 mM), and 3 μl of inhibitor sample in DMSO. The reaction mixture was incubated at room temperature, and 13 μl of reaction mixture was taken every 10 min and quenched with 117 μl of working solution (6:2:1 mixture of 0.42% ammonium molybdate tetrahydrate in 1N H2SO4, 10% SDS in water, and 10% ascorbic acid in water). The blue reduced phosphomolybdate complex is formed after incubation at 50°C for 20 min. The absorbance was measured at 820 nm.

[4] = system: human mammary adenocarcinoma MCF-7 cells; set-up: method as in Hori et al. 1993; settings: ref Hori et al. 1993; cited from earlier work
[5] = target: T1, glucose-6-phosphate translocase; settings: rat liver microsomes; reference inhibitor, source not given; read-out: IC50, chlorogenic acid used as reference in the G6Pase assay; cited from earlier work
[6] = target: glucose-6-phosphate translocase enzyme complex; set-up: method as in Vertesy et al. 2001; settings: ref Vertesy et al. 2001; cited from earlier work

Inhibition of G6Pase activity of the microsome (Figure 7B) [3] | Inhibition of G6Pase activity [3] | Structure (SMILES) | IC50 [2] [µg/mL] | also measured
– | – | CCCCC1=C(c2cc(O)cc(=O)o2)C(=O)CC(O)C1 (stereo not shown) [Compound 1] | – | Stability of the purified compound [1]: slowly dehydrate
– | – | CC(C)CCC1=C(c2cc(O)cc(=O)o2)C(=O)CC(O)C1 (stereo not shown) [Compound 2] | – | Stability of the purified compound [1]: slowly dehydrate
Dose-dependent inhibition | Dose-dependent inhibition | CCCCc1c(C(=O)O)c(O)cc2c1C(=O)c1c(O)cc(O)cc1C2=O [Compound 3] | 3.4 (≈ 9.54 µM) | –
Dose-dependent inhibition | Dose-dependent inhibition | CC(C)CCc1c(C(=O)O)c(O)cc2c1C(=O)c1c(O)cc(O)cc1C2=O [Compound 4] | 1.7 (≈ 4.59 µM) | –
– | – | CCCCc1cc(O)cc2c1C(=O)c1c(O)cc(O)cc1C2=O [Compound 5, R1128b] | – | IC50, cytotoxic activity against MCF-7 cells (natural products) [4]: 9.5 µg/mL (≈ 30.4 µM)
– | – | CC(C)CCc1cc(O)cc2c1C(=O)c1c(O)cc(O)cc1C2=O [Compound 6, R1128c] | – | IC50, cytotoxic activity against MCF-7 cells (natural products) [4]: 6.2 µg/mL (≈ 19 µM)
No inhibition | not | Cc1c(C(=O)O)c(O)cc2c1C(=O)c1c(O)cc(O)cc1C2=O [Compound 7, 3,6,8-trihydroxy-1-methylanthraquinone-2-carboxylic acid] | – | –
Dose-dependent inhibition | Dose-dependent inhibition | CCCCc1c(C(=O)O)c(O)cc2c1C(=O)c1c(O)cccc1C2=O [Compound 8] | – | –
Dose-dependent inhibition | Dose-dependent inhibition | CC(C)CCc1c(C(=O)O)c(O)cc2c1C(=O)c1c(O)cccc1C2=O [Compound 9] | 21.7 (≈ 61.2 µM) | –
No inhibition | not | Cc1c(C(=O)O)c(O)cc2c1C(=O)c1c(O)cccc1C2=O [DMAC, 3,8-dihydroxy-methylanthraquinone carboxylic acid, reference compound] | 26.9 (≈ 90.2 µM) | –
– | – | O=C(/C=C/c1ccc(O)c(O)c1)O[C@@H]1C[C@](O)(C(=O)O)C[C@@H](O)[C@H]1O [chlorogenic acid] | – | IC50 [5]: 260 µM
– | – | O=C(O)CC(O)CCC(=O)c1cccc(O)c1C(=O)c1c(C(=O)O)c(O)cc2c1C(=O)c1c(O)cccc1C2=O (stereo not shown) [mumbaistatin] | – | IC50 [6]: 5 nM
